Molecules are shown by their SMILES.

The results in this text go back to patent US20100267774A1, “P38 MAP KINASE INHIBITORS” (CHROMA THERAPEUTICS LTD., priority 2007, published 2010).

For the assay, the target named is T1, p38 MAP Kinase a (Homo sapiens, UniProt Q16539).
T1 construct: purchased Upstate (Dundee UK)
T1 sequence (Q16539 whole entry): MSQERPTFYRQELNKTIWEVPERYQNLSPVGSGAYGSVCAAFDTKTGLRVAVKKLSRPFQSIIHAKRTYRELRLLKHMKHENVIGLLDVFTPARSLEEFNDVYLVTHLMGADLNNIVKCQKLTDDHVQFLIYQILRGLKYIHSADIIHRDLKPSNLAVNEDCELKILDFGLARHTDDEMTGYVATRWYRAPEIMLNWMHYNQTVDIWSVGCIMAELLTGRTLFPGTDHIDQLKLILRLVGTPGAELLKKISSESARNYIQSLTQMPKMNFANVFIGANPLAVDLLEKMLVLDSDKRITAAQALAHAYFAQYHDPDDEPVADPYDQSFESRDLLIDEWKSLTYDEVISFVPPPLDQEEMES
The assay is described as follows: p38 MAP Kinase activity, radiometric filter-binding assay (Upstate). Type of assay: biochemical. Conditions: IC50 range; read-out: Inhibitor activity versus p38 MAPKa. Here is the method: The ability of compounds to inhibit p38 MAP a Kinase activity was measured in an assay performed by Upstate (Dundee UK). In a final reaction volume of 25 μL, p38 MAP Kinase a (5-10 mU) is incubated with 25 mM Tris pH 7.5, 0.002 mMEGTA, 0.33 mg/mL myelin basic protein, 10 mM MgAcetate and [g-33P-ATP] (specific activity approx. 500 cpm/pmol, concentration as required). The reaction is initiated by the addition of the MgATP mix. After incubation for 40 minutes at room temperature, the reaction is stopped by the addition of 5 μL of a 3% phosphoric acid solution. 10 μL of the reaction is then spotted onto a P30 filtermat and washed three times for 5 minutes in 75 mM phosphoric acid and once in methanol prior to drying and scintillation counting.
Duplicate data points are generated from a 1/3 log dilution series of a stock solution in DMSO. Nine dilutions steps are made from a top concentration of 10 μM, and a ‘no compound’ blank is included. The standard radiometric filter-binding assay is performed at an ATP concentration at, or close to, the Km. Data from scintillation counts are collected and subjected to free-fit analysis by Prism software. From the curve generated, the concentration giving 50% inhibition is determined and reported.
In the case of `CC(C)(C)OC(=O)[C@@H](NCCc1ccc(-n2c(N)c(C(=O)c3ccc(F)cc3F)ccc2=O)cc1)c1ccccc1` [Example 2, tert-butyl (2S)-{[2-(4-{6-amino-5-[(2,4-difluorophenyl)carbonyl]-2-oxopyridin-1(2H)-yl}phenyl)ethyl]amino}(phenyl)ethanoate], the IC50 is 100 to 1000 nM.
The result for `Nc1c(C(=O)c2ccc(F)cc2F)ccc(=O)n1-c1ccc(CCN[C@H](C(=O)OC2CCCC2)C2CCCCC2)cc1` [Example 3, Cyclopentyl (2S)-{[2-(4-{6-amino-5-[(2,4-difluorophenyl)carbonyl]-2-oxopyridin-1(2H)-yl}phenyl)ethyl]amino}(cyclohexyl)ethanoate] reads 100 to 1000 nM; that for `CC(C)(C)OC(=O)[C@@H](NCCc1ccc(-n2c(N)c(C(=O)c3ccc(F)cc3F)ccc2=O)cc1)C1CCCCC1` [Example 4, tert-butyl (2S)-{[2-(4-{6-amino-5-[(2,4-difluorophenyl)carbonyl]-2-oxopyridin-1(2H)-yl}phenyl)ethyl]amino}(cyclohexyl)ethanoate], over 1000 nM; that for `CC(C)C[C@@H](NCCc1ccc(-n2c(N)c(C(=O)c3ccc(F)cc3F)ccc2=O)cc1)C(=O)OC(C)(C)C` [Example 10, tert-butyl N-[2-(4-{6-amino-5-[(2,4-difluorophenyl)carbonyl]-2-oxopyridin-1(2H)-yl}phenyl)ethyl]-D-leucinate], 100 to 1000 nM.
Next, `CC(C)C[C@H](NCCc1ccc(-n2c(N)c(C(=O)c3ccc(F)cc3F)ccc2=O)cc1)C(=O)O[C@H]1C[C@@H](C)CC[C@@H]1C(C)C` [Example 14, (1S,2R,5S)-2-Isopropyl-5-methylcyclohexyl N-(2-{4-[6-amino-5-(2,4-difluorobenzoyl)-2-oxopyridin-1(2H)-yl]phenyl}ethyl)-L-leucinate]: over 1000 nM; `C[C@@H](OC(C)(C)C)[C@H](NCCc1ccc(-n2c(N)c(C(=O)c3ccc(F)cc3F)ccc2=O)cc1)C(=O)OC(C)(C)C` [Example 16, tert-butyl N-[2-(4-{6-amino-5-[(2,4-difluorophenyl)carbonyl]-2-oxopyridin-1(2H)-yl}phenyl)ethyl]-O-tert-butyl-L-threoninate]: 100 to 1000 nM.
Regarding `CC[C@H](C)[C@H](NCCc1ccc(-n2c(N)c(C(=O)c3ccc(F)cc3F)ccc2=O)cc1)C(=O)OC(C)(C)C` [Example 19, tert-butyl N-[2-(4-{6-amino-5-[(2,4-difluorophenyl)carbonyl]-2-oxopyridin-1(2H)-yl}phenyl)ethyl]-L-isoleucinate], the IC50 was 100 to 1000 nM.
Regarding `C[C@H](NCCc1ccc(-n2c(N)c(C(=O)c3ccc(F)cc3F)ccc2=O)cc1)C(=O)OC(C)(C)C` [Example 21, tert-butyl N-[2-(4-{6-amino-5-[(2,4-difluorophenyl)carbonyl]-2-oxopyridin-1(2H)-yl}phenyl)ethyl]-L-alaninate], the IC50 was under 100 nM.
Next, `CC(C)(C)OC(=O)[C@H](Cc1ccccc1)NCCc1ccc(-n2c(N)c(C(=O)c3ccc(F)cc3F)ccc2=O)cc1` [Example 23, tert-butyl N-[2-(4-{6-amino-5-[(2,4-difluorophenyl)carbonyl]-2-oxopyridin-1(2H)-yl}phenyl)ethyl]-L-phenylalaninate]: 100 to 1000 nM; `CC(C)(C)OC[C@H](NCCc1cc(F)c(-n2c(N)c(C(=O)c3ccc(F)cc3)ccc2=O)c(F)c1)C(=O)OC(C)(C)C` [Example 32, tert-butyl N-(2-{4-[6-amino-5-(4-fluorobenzoyl)-2-oxopyridin-1(2H)-yl]-3,5-difluorophenyl}ethyl)-O-tert-butyl-L-serinate]: 100 to 1000 nM; `CC(C)C[C@H](NCCc1ccc(-n2c(N)c(C(=O)c3ccc(F)cc3F)ccc2=O)s1)C(=O)OC(C)(C)C` [Example 50, tbutyl N-(2-{5-[6-amino-5-(2,4-difluorobenzoyl)-2-oxopyridin-1(2H)-yl]-2-thienyl}ethyl)-L-leucinate]: 100 to 1000 nM.
Next, `Nc1c(C(=O)c2ccc(F)cc2F)ccc(=O)n1-c1ccc(CCN[C@H](C(=O)O)c2ccccc2)cc1` [Example 51, (2S)-[(2-{4-[6-amino-5-(2,4-difluorobenzoyl)-2-oxopyridin-1(2H)yl]-phenyl}ethyl)amino](phenyl)acetic acid]: 100 to 1000 nM; `Nc1c(C(=O)c2ccc(F)cc2F)ccc(=O)n1-c1ccc(CCN[C@H](C(=O)O)C2CCCCC2)cc1` [Example 52, (2S)-{[2-(4-{6-amino-5-[(2,4-difluorophenyl)carbonyl]-2-oxopyridin-1(2H)-yl}phenyl)ethyl]amino}(cyclohexyl)ethanoic acid]: 100 to 1000 nM.
Next, `CC(C)[C@H](NCCc1ccc(-n2c(N)c(C(=O)c3ccc(F)cc3F)ccc2=O)cc1)C(=O)O` [Example 53, N-[2-(4-{6-amino-5-[(2,4-difluorophenyl)carbonyl]-2-oxopyridin-1(2H)-yl}phenyl)ethyl]-L-valine]: under 100 nM; `CC(C)(C)[C@H](NCCc1ccc(-n2c(N)c(C(=O)c3ccc(F)cc3F)ccc2=O)cc1)C(=O)O` [Example 54, N-[2-(4-{6-amino-5-[(2,4-difluorophenyl)carbonyl]-2-oxopyridin-1(2H)-yl}phenyl)ethyl]-3-methyl-L-valine]: 100 to 1000 nM; `CC(C)C[C@@H](NCCc1ccc(-n2c(N)c(C(=O)c3ccc(F)cc3F)ccc2=O)cc1)C(=O)O` [Example 55, N-[2-(4-{6-amino-5-[(2,4-difluorophenyl)carbonyl]-2-oxopyridin-1(2H)-yl}phenyl)ethyl]-D-leucine]: 100 to 1000 nM.
On to `CC(C)(C)OC[C@H](NCCc1ccc(-n2c(N)c(C(=O)c3ccc(F)cc3F)ccc2=O)cc1)C(=O)O` [Example 56, N-[2-(4-{6-amino-5-[(2,4-difluorophenyl)carbonyl]-2-oxopyridin-1(2H)-yl}phenyl)ethyl]-O-tert-butyl-L-serine], for which the IC50 is under 100 nM.
Next, `Nc1c(C(=O)c2ccc(F)cc2F)ccc(=O)n1-c1ccc(CCN[C@@H](CO)C(=O)O)cc1` [Example 57, N-[2-(4-{6-amino-5-[(2,4-difluorophenyl)carbonyl]-2-oxopyridin-1(2H)-yl}phenyl)ethyl]-L-serine]: under 100 nM; `C[C@@H](O)[C@H](NCCc1ccc(-n2c(N)c(C(=O)c3ccc(F)cc3F)ccc2=O)cc1)C(=O)O` [Example 58, N-[2-(4-{6-amino-5-[(2,4-difluorophenyl)carbonyl]-2-oxopyridin-1(2H)-yl}phenyl)ethyl]-L-threonine]: under 100 nM; `C[C@H](NCCc1ccc(-n2c(N)c(C(=O)c3ccc(F)cc3F)ccc2=O)cc1)C(=O)O` [Example 60, N-[2-(4-{6-amino-5-[(2,4-difluorophenyl)carbonyl]-2-oxopyridin-1(2H)-yl}phenyl)ethyl]-L-alanine]: under 100 nM.
Next, `Nc1c(C(=O)c2ccc(F)cc2F)ccc(=O)n1-c1ccc(CCN[C@@H](Cc2ccccc2)C(=O)O)cc1` [Example 61, N-[2-(4-{6-amino-5-[(2,4-difluorophenyl)carbonyl]-2-oxopyridin-1(2H)-yl}phenyl)ethyl]-L-phenylalanine]: under 100 nM.
Next, `Nc1c(C(=O)c2ccc(F)cc2)ccc(=O)n1-c1c(F)cc(CCN[C@H](C(=O)O)c2ccccc2)cc1F` [Example 62, (2S)-[(2-{4-[6-amino-5-(4-fluorobenzoyl)-2-oxopyridin-1(2H)-yl]-3,5-difluorophenyl}ethyl)amino](phenyl)acetic acid]: under 100 nM; `CC(C)C[C@H](NCCc1cc(F)c(-n2c(N)c(C(=O)c3ccc(F)cc3)ccc2=O)c(F)c1)C(=O)O` [Example 63, N-(2-{4-[6-amino-5-(4-fluorobenzoyl)-2-oxopyridin-1(2H)-yl]-3,5-difluorophenyl}ethyl)-L-leucine]: under 100 nM; `CC(C)C[C@@H](NCCc1cc(F)c(-n2c(N)c(C(=O)c3ccc(F)cc3)ccc2=O)c(F)c1)C(=O)O` [Example 64, N-(2-{4-[6-amino-5-(4-fluorobenzoyl)-2-oxopyridin-1(2H)-yl]-3,5-difluorophenyl}ethyl)-D-leucine]: under 100 nM.
For `CC(C)(C)OC[C@H](NCCc1cc(F)c(-n2c(N)c(C(=O)c3ccc(F)cc3)ccc2=O)c(F)c1)C(=O)O` [Example 65, N-(2-{4-[6-amino-5-(4-fluorobenzoyl)-2-oxopyridin-1(2H)-yl]-3,5-difluorophenyl}ethyl)-O-tert-butyl-L-serine], the IC50 was under 100 nM.
Consider `Nc1c(C(=O)c2ccc(F)cc2F)ccc(=O)n1-c1c(F)cc(CCN[C@H](C(=O)O)c2ccccc2)cc1F` [Example 66, (2S)-[(2-{4-[6-amino-5-(2,4-difluorobenzoyl)-2-oxopyridin-1(2H)-yl]-3,5-difluorophenyl}ethyl)amino](phenyl)acetic acid], for which the IC50 was under 100 nM.
The result for `CC(C)C[C@H](NCCc1cc(F)c(-n2c(N)c(C(=O)c3ccc(F)cc3F)ccc2=O)c(F)c1)C(=O)O` [Example 67, N-(2-{4-[6-amino-5-(2,4-difluorobenzoyl)-2-oxopyridin-1(2H)-yl]-3,5-difluorophenyl}ethyl)-L-leucine] reads under 100 nM; that for `CC(C)C[C@@H](NCCc1cc(F)c(-n2c(N)c(C(=O)c3ccc(F)cc3F)ccc2=O)c(F)c1)C(=O)O` [Example 68, N-(2-{4-[6-amino-5-(2,4-difluorobenzoyl)-2-oxopyridin-1(2H)-yl]-3,5-difluorophenyl}ethyl)-D-leucine], under 100 nM.
